# Earlier results as cited in patent publication US6428772B1, “Acne treatment composition with cooling effect” (Blistex Inc., priority 2001, dated 2002).
# Read-outs that look alike come from different tables or passages of the source.
# Experiments:
# [1] = tested on: histamine induced itching; settings: Neuroscience Letters 1995, 187:3, pp. 157-160
# [2] = not given; remark: listed apart in the source
volume of alcohol dissolving 1 gram (1 gram),pH of the solution produced ([2]; 1 gram in about 460 ml of water),"volume of water dissolving 1 gram ([2]; 1 gram, water, room temperature)","solubility in water ([2]; water, room temperature)",Structure (SMILES),effect on histamine induced itching [1],solubility in alcohol,solubility in water ([2]; water)
–,–,–,–,CC1CCC(C(C)C)C(O)C1 (centres unmarked) [menthol],effective,–,–
–,–,–,–,"O=C(OOC(=O)c1ccccc1)c1ccccc1 [Benzoyl peroxide, benzoyl peroxide]",–,sparingly soluble,sparingly soluble
about 2.7 ml,2.4,about 460 ml,about 0.2 % by weight,"O=C(O)c1ccccc1O [Salicylic acid, salicylic acid]",–,–,sparingly soluble
